Test results taken from patent US20240307362A1 (priority 2019, published 2024).
pIC50: −log10 of the molar value.

Assays:
human Bub1 = human Bub1 (Homo sapiens (Human), UniProt O43683); test: Bub1 high ATP kinase assay (TR-FRET); format: biochemical; conditions: read-out: Bub1 high ATP (2 mM) IC50; 2 mM ATP
Excerpt: Bub1-inhibitory activity of compounds of the present invention at a high ATP concentration was quantified employing the Bub1 TR-FRET high ATP kinase assay as described in the following paragraphs.
N-terminally His6-tagged recombinant catalytic domain of human Bub1 (amino acids 704-1085), expressed in insect cells (Hi5) and purified by Ni-NTA affinity chromatography and subsequent size exclusion chromatography, was used as enzyme.

[1] = system: Ba/F3-EGFR-D770_N771insNPG; test: Ba/F3 cell survival assay, EGFR D770_N771insNPG; format: cell-based; conditions: Mus musculus, BaF3, 48 h, read-out: BA/F3 (insNPG) IC50
Description: (§1) 293T cells from ATCC were transfected with pBABEpuro expression constructs for mutant EGFR (V769_D770insASV, D770_N771insNPG, N771_P772insH, H773_V774insNPH, E746_A750del, L858R, D770_N771 insSVD C797S, E746_A750del C797S, L858R C797S, L861Q) or mutant ERBB2 (A775_G776insYVMA) and pCL-Eco packaging vector using Fugene-6 transfection reagent from Promega. Plates were incubated at 37° C. for 48 h. Retrovirus was harvested by filtering the media supernatant through a 0.45 μm filter.
(§2) Ba/F3 cells purchased from DSMZ were grown in RPMI+10% FBS+10 ng/mL IL-3 and infected with filtered retroviral supernatant at a 1:2 dilution. Polybrene was added to a concentration of 8 μg/mL, plates were spun for 90 min, and incubated overnight at 37° C. 2 μg/mL puromycin was added to the infected cells 24 h after infection and cells were continually grown in the presence of puromycin and 10 ng/mL IL-3. Following stably expressing Ba/F3 cell lines were generated: Ba/F3-EGFR-V769_D770insASV, Ba/F3-EGFR-D770_N771insNPG, Ba/F3-EGFR-N771_P772insH, Ba/F3-EG, Ba/F3-EGFR-H773_V774insNPH, Ba/F3-EGFR-E746_A750del, Ba/F3-EGFR-L858R, Ba/F3-EGFR-D770_N771 insSVD C797S, Ba/F3-EGFR-E746_A750del C797S, Ba/F3-EGFR-L858R C797S, Ba/F3-EGFR L861Q and Ba/F3-ERBB2-A775_G776insYVMA (Ba/F3—vector-control).
(§3) For cell survival assays, Ba/F3 cells were grown to a density of 1-2 million cells per mL, spun down and resuspended in media without IL-3, and replated at a concentration 200,000-500,000 cells per mL. The cells ectopically expressing WT EGFR plated with 10 ng/mL Millipore Culture grade EGF and Ba/F3 cells containing mutant EGFR or Mutant ERBB2 were cultivated without EGF. The cells ectopically expressing pBABEpuro empty vector were plated with 10 ng/mL IL-3.
(§4) 2 days later, cells were plated in 50 μL in a 384 well plate at a concentration of 4000 cells per well for cells assayed in the absence of IL-3 and 2000 cells per well for cells assayed in the presence of IL-3. 100 nL of compound was added to each well using a 100 nL pin head, and plates were incubated at 37° C. for 48 h.
(§5) Cell viability was measured by adding 20 μL of Cell Titer-Glo Luminescent Cell Viability Reagent diluted 1:3 in PBS. Plates were sealed with Perkin Elmer Top-Seal, inverted several times to mix, and immediately centrifuged at 1000 rpm for 2 min. Plates were incubated in low light conditions for 8-10 min and luminescence was measured.

[2] = system: Ba/F3-EGFR-H773_V774insNPH; test: Ba/F3 cell survival assay, EGFR H773_V774insNPH; format: cell-based; conditions: Ba/F3 EGFR-H773-V774ins_NPH, 48 h, read-out: BA/F3 (EGFR H773— V774insNPH) IC50
Description: as §1, §2, §3, §4, §5

Ba/F3-EGFR L861Q = test: Ba/F3 cell survival assay, EGFR L861Q; format: cell-based; conditions: 48 h, read-out: BA/F3 (EGFR L861Q) IC50
Description: as §1, §2, §3, §4, §5

PC9 cells = test: PC9 cell proliferation assay (EGFRex19del); format: cell-based; conditions: Homo sapiens, PC-9, 72 h, read-out: PC9 IC50
Description: (§6) PC9 cells were purchased from ATCC. 400 PC9 cells per well were seeded in growth medium (DMEM, 10% FCS) in a 384-well plate (CORNING #3571). Seed reference plate for time zero determination on the same day. All plates were incubated overnight at 37° C. After 24 hours, test compound were added in 7-step dilution using HP Compound printer and incubated at 37° C. for 72 h. After 3 days, 30 μL/well CTG solution (Promega Cell Titer Glo solution; catalog #G755B and G756B) were added to each well, incubated for 30 minutes and the plate were read on PheraStar. Proliferation is calculated after subtracting time zero luminescence values from day 4 values and comparing to untreated wells. The IC50 values were determined using the four parameter fit.

HCC-827 cells = test: HCC-827 cell proliferation assay (EGFRex19del); format: cell-based; conditions: Homo sapiens, HCC827, 72 h, read-out: HCC-827 IC50
Description: as §6, with “HCC-827 cells” for “PC9 cells”, “[…]” for “400 PC9”, “medium (RPMI1640,” for “medium (DMEM,”, “wells.” for “wells. The IC50 values were determined using the four parameter fit.”
The IC50 values were determined using the four parameter fit.

human Bub1, sequence (O43683 704-1085): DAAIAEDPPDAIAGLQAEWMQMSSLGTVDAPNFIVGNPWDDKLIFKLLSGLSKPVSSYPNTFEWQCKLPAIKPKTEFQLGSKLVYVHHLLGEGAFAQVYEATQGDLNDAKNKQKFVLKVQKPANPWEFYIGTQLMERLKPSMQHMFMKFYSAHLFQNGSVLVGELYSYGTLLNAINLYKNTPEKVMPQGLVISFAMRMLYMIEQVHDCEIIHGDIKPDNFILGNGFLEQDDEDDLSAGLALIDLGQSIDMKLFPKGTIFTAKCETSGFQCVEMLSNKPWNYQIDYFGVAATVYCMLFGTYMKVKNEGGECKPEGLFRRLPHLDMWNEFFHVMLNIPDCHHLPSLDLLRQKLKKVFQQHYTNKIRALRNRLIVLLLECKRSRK

SMILES	pIC50 (human Bub1)	pIC50 [1]	pIC50 [2]	pIC50 (Ba/F3-EGFR L861Q)	pIC50 (PC9 cells)	pIC50 (HCC-827 cells)
COc1c(Cl)cccc1Nc1c(-c2ccncc2OCCC2CCO2)[nH]c2c1C(=O)NCC2 (single isomer, unassigned; (-)) [Example 26, (−)-3-(3-chloro-2-methoxyanilino)-2-{3-[2-(oxetan-2-yl)ethoxy]pyridin-4-yl}-1,5,6,7-tetrahydro-4H-pyrrolo[3,2-c]pyridin-4-one]	5.81	8.12	7.53	8.19	8.85	> 8.52
COc1c(Cl)cccc1Nc1c(-c2ccncc2OCC2OCC2(C)C)[nH]c2c1C(=O)NCC2 (single isomer, unassigned; (+)) [Example 50, (+)-3-(3-chloro-2-methoxyanilino)-2-{3-[(3,3-dimethyloxetan-2-yl)methoxy]pyridin-4-yl}-1,5,6,7-tetrahydro-4H-pyrrolo[3,2-c]pyridin-4-one]	< 4.70	8.04	7.34	7.67	8.64	> 8.52
COc1c(Cl)cccc1Nc1c(-c2ccncc2OCC2(C)CCO2)[nH]c2c1C(=O)NCC2 (single isomer, unassigned; (+)) [Example 48, (+)-3-(3-chloro-2-methoxyanilino)-2-{3-[(2-methyloxetan-2-yl)methoxy]pyridin-4-yl}-1,5,6,7-tetrahydro-4H-pyrrolo[3,2-c]pyridin-4-one]	4.99	8.07	7.42	7.83	8.68	> 8.52
COc1c(Cl)cccc1Nc1c(-c2ccncc2OC[C@@H]2CCO2)[nH]c2c1C(=O)NCC2 [Example 2, 3-(3-chlor-2-methoxyanilino)-2-{3-[(2S)-oxetan-2-ylmethoxy]pyridin-4-yl}-1,5,6,7-tetrahydro-4H-pyrrolo[3,2-c]pyridin-4-on]	< 4.70	8.01	7.52	7.77	8.64	> 8.52
